The values that follow come from patent US20040028744A1, “Mucoadhesive composition” (priority 2002, published 2004).

This data set can be described thus: Solubility of benzocaine in ethyl alcohol with and without menthol. It is filed as physicochemical. The text has this:
While not wishing to be bound to any theory, it appears that, in embodiments containing the medicament, for example benzocaine, menthol improves the clarity of the composition by increasing the solubility of medicament in the gel composition. This belief is based on the observation that the solubility of benzocaine in ethyl alcohol containing menthol is higher than the solubility of benzocaine in ethyl alcohol without menthol. It is believed that menthol can enhance the interaction between polymethacrylate, such as Eudragit™ RS, and a medicament, such as benzocaine. This belief is based on an interaction study conducted with a Differential Scanning Calorimeter (DSC). Further, while not wishing to be bound to any theory, it appears that one or both of the polymers may be forming a complex with the medicament drug in the presence of menthol and enhancing the clarity of the composition.

As to `CCOC(=O)c1ccc(N)cc1` [benzocaine], the “solubility of benzocaine in ethyl alcohol containing menthol versus without menthol” value was “higher”.
